Measurements: patent US20230203029A1 (priority 2020, published 2023)
pIC50: −log10 of the molar value.

Experiments:
[1] = biological target: T1, human AXL cytoplasmic domain (Homo sapiens, UniProt P30530); experiment: Assay 1b AXL HTRF KinEASE-TK assay; type: biochemical
T1 construct: human AXL cytoplasmic domain (Thermo Fisher A31515); purchased Thermo Fisher A31515
T1 sequence (P30530 473-894 limits assumed): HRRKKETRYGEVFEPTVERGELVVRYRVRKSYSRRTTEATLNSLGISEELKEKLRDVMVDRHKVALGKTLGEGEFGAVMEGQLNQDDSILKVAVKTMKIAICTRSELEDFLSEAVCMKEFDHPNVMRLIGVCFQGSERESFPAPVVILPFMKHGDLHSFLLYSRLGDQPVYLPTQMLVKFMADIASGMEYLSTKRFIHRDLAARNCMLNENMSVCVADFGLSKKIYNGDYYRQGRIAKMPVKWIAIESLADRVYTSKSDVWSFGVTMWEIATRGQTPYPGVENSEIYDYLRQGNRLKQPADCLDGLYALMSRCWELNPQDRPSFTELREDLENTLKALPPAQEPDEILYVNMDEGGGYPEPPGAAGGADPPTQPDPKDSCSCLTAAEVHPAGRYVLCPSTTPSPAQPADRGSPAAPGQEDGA
How it was run: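 Recombinant cytoplasmic domain (5 nM) in kinase buffer with 5 mM MgCl2, 1 mM MnCl2, 1 mM DTT, 50 nM SEB plus test compounds; reaction 30 min at room temperature. EDTA-containing detection with TK antibody-cryptate/streptavidin-XL665 for 60 min; HTRF 665/620 ratio read. IC50 from 4-parameter logistic fit with variable slope.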

[2] = biological target: T2, Ba/F3 Pro B-cell line expressing TEL-human Tyro3 fusion domain (Homo sapiens, UniProt Q06418); type: cell-based; details: cell survival, 48 h, CellTiter-Glo
T2 sequence (Q06418 518-790 limits assumed): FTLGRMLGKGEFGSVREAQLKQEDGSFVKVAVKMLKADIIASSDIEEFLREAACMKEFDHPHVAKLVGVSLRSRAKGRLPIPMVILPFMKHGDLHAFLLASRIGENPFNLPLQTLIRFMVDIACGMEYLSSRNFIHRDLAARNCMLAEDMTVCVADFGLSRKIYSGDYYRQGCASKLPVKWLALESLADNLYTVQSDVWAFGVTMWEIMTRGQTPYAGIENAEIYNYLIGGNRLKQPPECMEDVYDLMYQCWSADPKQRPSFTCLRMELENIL

| SMILES | pIC50 [1] | pIC50 [2] |
| --- | --- | --- |
| CN1CCC(NC(=O)c2cc3c(Nc4ccc(NC(=O)c5cccn(-c6ccccc6)c5=O)cc4)ccnc3cn2)CC1 [Example 3, N-(1-methyl-4-piperidyl)-4-[4-[(2-oxo-1-phenyl-pyridine-3-carbonyl)amino]anilino]-1,7-naphthyridine-6-carboxamide] | 6.70 | 6.02 |
| O=C(Nc1ccc(Oc2ccnc3cnc(N4CCNCC4)cc23)cc1)c1cccn(-c2ccc(F)cc2)c1=O [Example 12.2, 1-(4-fluorophenyl)-2-oxo-N-[4-[(6-piperazin-1-yl-1,7-naphthyridin-4-yl)oxy]phenyl]pyridine-3-carboxamide] | 7.80 | 6.62 |
| CC(C)n1cc(C(=O)Nc2ccc(Oc3ccnc4cnc(N5CCNCC5)cc34)cc2)c(=O)n(-c2ccccn2)c1=O [Example 12.3, 1-isopropyl-2,4-dioxo-N-[4-[(6-piperazin-1-yl-1,7-naphthyridin-4-yl)oxy]phenyl]-3-(2-pyridyl)pyrimidine-5-carboxamide] | 7.72 | 5.88 |
| Cn1cc(C(=O)Nc2ccc(Oc3ccnc4cnc(N5CCNCC5)cc34)cc2)c(=O)c(-c2ccc(F)cc2)c1 [Example 13.1, 5-(4-fluorophenyl)-1-methyl-4-oxo-N-[4-[(6-piperazin-1-yl-1,7-naphthyridin-4-yl)oxy]phenyl]pyridine-3-carboxamide] | 8.00 | 6.75 |
| C[C@H](CO)n1cc(C(=O)Nc2ccc(Oc3ccnc4cnc(C(=O)NC5CCN(C)CC5)cc34)cc2)c(=O)n(-c2ccc(F)cc2)c1=O [Example 14, 4-[4-[[3-(4-Fluorophenyl)-2,4-dioxo-1-[(1R)-2-hydroxy-1-methyl-ethyl]pyrimidine-5-carbonyl]amino]phenoxy]-N-(1-methyl-4-piperidyl)-1,7-naphthyridine-6-carboxamide] | 8.00 | 6.23 |
| CN1CCC(NC(=O)c2cc3c(Oc4ccc(NC(=O)c5cn(C6CC6)c(=O)n(-c6ccc(F)cc6)c5=O)cc4)ccnc3cn2)CC1 [Example 15, 4-[4-[[1-Cyclopropyl-3-(4-fluorophenyl)-2,4-dioxo-pyrimidine-5-carbonyl]amino]phenoxy]-N-(1-methyl-4-piperidyl)-1,7-naphthyridine-6-carboxamide] | 8.00 | 6.17 |
| CC(C)n1cc(C(=O)Nc2ccc(Oc3ccnc4cnc(C(=O)NC5CCN(C)CC5)cc34)cn2)c(=O)n(-c2ccc(F)cc2)c1=O [Example 27.5, 4-[[6-[[3-(4-fluorophenyl)-1-isopropyl-2,4-dioxo-pyrimidine-5-carbonyl]amino]-3-pyridyl]oxy]-N-(1-methyl-4-piperidyl)-1,7-naphthyridine-6-carboxamide] | 8.05 | 6.97 |
| Cc1cc(NC(=O)c2cccn(-c3ccccc3)c2=O)ccc1Oc1ccnc2cnc(N3CCNCC3)cc12 [Example 30, N-[3-methyl-4-[(6-piperazin-1-yl-1,7-naphthyridin-4-yl)oxy]phenyl]-2-oxo-1-phenyl-pyridine-3-carboxamide] | 6.06 | 5.88 |
| CN1CCC(NC(=O)c2cc3c(Oc4ccc(NC(=O)c5cccn(-c6ccccc6)c5=O)cc4F)ccnc3cn2)CC1 [Example 33, 4-[2-fluoro-4-[(2-oxo-1-phenyl-pyridine-3-carbonyl)amino]phenoxy]-N-(1-methyl-4-piperidyl)-1,7-naphthyridine-6-carboxamide] | 7.42 | 6.81 |

These reach a higher pIC50 [1]. Values come first.

| pIC50 [1] | SMILES | pIC50 [2] |
| --- | --- | --- |
| 8.22 | CC(C)n1cc(C(=O)Nc2ccc(Oc3ccnc4cnc(N5CCNCC5)cc34)cc2)c(=O)n(-c2ccc(F)cn2)c1=O [Example 12.4, 3-(5-fluoro-2-pyridyl)-1-isopropyl-2,4-dioxo-N-[4-[(6-piperazin-1-yl-1,7-naphthyridin-4-yl)oxy]phenyl]pyrimidine-5-carboxamide] | 6.50 |
| 8.22 | CC(C)n1cc(C(=O)Nc2ccc(Oc3ccnc4cnc(N5CCNCC5)cc34)cc2)c(=O)c(-c2ccc(F)cc2)c1 [Example 13, 5-(4-Fluorophenyl)-1-isopropyl-4-oxo-N-[4-[(6-piperazin-1-yl-1,7-naphthyridin-4-yl)oxy]phenyl]pyridine-3-carboxamide] | 6.67 |
| 8.15 | O=C(Nc1ccc(Oc2ccnc3cnc(N4CCN(C5COC5)CC4)cc23)cn1)c1ccnn(-c2ccc(F)cc2)c1=O [Example 20, 2-(4-fluorophenyl)-N-[5-[[6-[4-(oxetan-3-yl)piperazin-1-yl]-1,7-naphthyridin-4-yl]oxy]-2-pyridyl]-3-oxo-pyridazine-4-carboxamide] | 6.57 |
| 8.30 | O=C(Nc1ccc(Oc2ccnc3cnc(N4CCNCC4)cc23)cc1)c1cn(C2CC2)c(=O)n(-c2ccc(F)cc2)c1=O [Example 36, 1-cyclopropyl-3-(4-fluorophenyl)-2,4-dioxo-N-[4-[(6-piperazin-1-yl-1,7-naphthyridin-4-yl)oxy]phenyl]pyrimidine-5-carboxamide] | 6.06 |
| 8.15 | CN1CCC(NC(=O)c2cc3c(Oc4ccc(NC(=O)c5cn(C)cc(-c6ccc(F)cc6)c5=O)cc4)ccnc3cn2)CC1 [Example 37, 4-[4-[[5-(4-fluorophenyl)-1-methyl-4-oxo-pyridine-3-carbonyl]amino]phenoxy]-N-(1-methyl-4-piperidyl)-1,7-naphthyridine-6-carboxamide] | 6.60 |
| 8.30 | CC(C)n1cc(C(=O)Nc2ccc(Oc3ccnc4cnc(C(=O)NC5CCN(C)CC5)cc34)cc2)c(=O)c(-c2ccc(F)cc2)c1 [Example 37.1, 4-[4-[[5-(4-fluorophenyl)-1-isopropyl-4-oxo-pyridine-3-carbonyl]amino]phenoxy]-N-(1-methyl-4-piperidyl)-1,7-naphthyridine-6-carboxamide] | 7.37 |
